Test results taken from ChEMBL document CHEMBL4118048, “Characterization of the Polymyxin D Synthetase Biosynthetic Cluster and Product Profile of Paenibacillus polymyxa ATCC 10401” (2017).
In brackets after ≈: the same amount, converted by molar mass. Activity calls are given as the source filed them. The rule behind the calls is not given here. Where a SMILES comes first, the peptide text is derived from it. Bridges are numbered along the chain shown (N, C = ends). [ ]: non-standard residue; d: D form. The star is where a group is joined. Heptanoyl(6-Me) = CC(C)CCCCC(=O)*; X1 = CC[C@H](C)CCCCC(=O)*; Dab = NCC[C@H](N)C(=O)O

What was measured:
[1] = tested on: Pseudomonas aeruginosa; assay: Antibacterial activity against Pseudomonas aeruginosa ATCC 27853 after 18 hrs by broth microdilution method; format: functional; conditions: ATCC 27853, 18 h
[2] = tested on: Acinetobacter baumannii; assay: Antibacterial activity against Acinetobacter baumannii ATCC 19606 after 18 hrs by broth microdilution method; format: functional; conditions: ATCC 19606 = CIP 70.34 = JCM 6841, 18 h
[3] = tested on: Klebsiella pneumoniae; assay: Antibacterial activity against Klebsiella pneumoniae isolate FADDI-KP032 after 18 hrs by broth microdilution method; format: functional; conditions: isolate FADDI-KP032, 18 h
[4] = tested on: Klebsiella pneumoniae; assay: Antibacterial activity against Klebsiella pneumoniae isolate FADDI-KP032 infected in mouse assessed as reduction in bacterial count in blood at 4 mg/kg, ip measured after 4 hrs; format: functional, organism-based
[5] = tested on: Acinetobacter baumannii; assay: Antibacterial activity against Acinetobacter baumannii ATCC 19606 infected in mouse assessed as reduction in bacterial count in blood at 4 mg/kg, ip measured after 4 hrs; format: functional, organism-based; conditions: ATCC 19606 = CIP 70.34 = JCM 6841
[6] = tested on: Pseudomonas aeruginosa; assay: Antibacterial activity against Pseudomonas aeruginosa ATCC 27853 infected in mouse assessed as reduction in bacterial count in blood at 4 mg/kg, ip measured after 4 hrs; format: functional
[7] = tested on: Pseudomonas aeruginosa; assay: Antibacterial activity against Pseudomonas aeruginosa isolate FADDI-PA022 after 18 hrs by broth microdilution method; format: functional; conditions: isolate FADDI-PA022, 18 h
[8] = tested on: Pseudomonas aeruginosa; assay: Antibacterial activity against Pseudomonas aeruginosa isolate FADDI-PA025 after 18 hrs by broth microdilution method; format: functional; conditions: isolate FADDI-PA025, 18 h
[9] = tested on: Pseudomonas aeruginosa; assay: Antibacterial activity against Pseudomonas aeruginosa isolate FADDI-PA001 after 18 hrs by broth microdilution method; format: functional; conditions: isolate FADDI-PA001, 18 h
[10] = tested on: Pseudomonas aeruginosa; assay: Antibacterial activity against Pseudomonas aeruginosa isolate FADDI-PA038 after 18 hrs by broth microdilution method; format: functional; conditions: isolate FADDI-PA038, 18 h
[11] = tested on: Acinetobacter baumannii; assay: Antibacterial activity against Acinetobacter baumannii isolate FADDI-AB034 after 18 hrs by broth microdilution method; format: functional; conditions: isolate FADDI-AB034, 18 h
[12] = tested on: Acinetobacter baumannii; assay: Antibacterial activity against Acinetobacter baumannii ATCC 17978 after 18 hrs by broth microdilution method; format: functional; conditions: ATCC 17978, 18 h
[13] = tested on: Acinetobacter baumannii; assay: Antibacterial activity against Acinetobacter baumannii isolate FADDI-AB030 after 18 hrs by broth microdilution method; format: functional; conditions: isolate FADDI-AB030, 18 h
[14] = tested on: Klebsiella pneumoniae; assay: Antibacterial activity against Klebsiella pneumoniae ATCC 13883 after 18 hrs by broth microdilution method; format: functional; conditions: ATCC 13883, 18 h
[15] = tested on: Klebsiella pneumoniae; assay: Antibacterial activity against Klebsiella pneumoniae isolate FADDI-KP022 after 18 hrs by broth microdilution method; format: functional; conditions: isolate FADDI-KP022, 18 h
[16] = tested on: Klebsiella pneumoniae; assay: Antibacterial activity against Klebsiella pneumoniae BM1 after 18 hrs by broth microdilution method; format: functional; conditions: BM1, 18 h
[17] = tested on: Klebsiella pneumoniae; assay: Antibacterial activity against Klebsiella pneumoniae ATCC 700721 after 18 hrs by broth microdilution method; format: functional; conditions: ATCC 700721, 18 h
[18] = tested on: Klebsiella pneumoniae; assay: Antibacterial activity against Klebsiella pneumoniae isolate FADDI-KP065 after 18 hrs by broth microdilution method; format: functional; conditions: isolate FADDI-KP065, 18 h
[19] = tested on: Escherichia coli; assay: Antibacterial activity against Escherichia coli isolate FADDI-EC006 after 18 hrs by broth microdilution method; format: functional; conditions: isolate FADDI-EC006, 18 h
[20] = tested on: Escherichia coli; assay: Antibacterial activity against Escherichia coli isolate FADDI-EC001 after 18 hrs by broth microdilution method; format: functional; conditions: isolate FADDI-EC001, 18 h
[21] = tested on: Escherichia coli; assay: Antibacterial activity against Escherichia coli isolate FADDI-EC003 after 18 hrs by broth microdilution method; format: functional; conditions: isolate FADDI-EC003, 18 h

Row | SMILES | MIC [1] [µg/mL] | MIC [2] [µg/mL] | MIC [3] [µg/mL] | Activity [4] | Activity [5] | log(activity) [6] | MIC [7] [µg/mL] | MIC [8] [µg/mL] | MIC [9] [µg/mL] | MIC [10] [µg/mL] | MIC [11] [µg/mL] | MIC [12] [µg/mL] | MIC [13] [µg/mL] | MIC [14] [µg/mL] | MIC [15] [µg/mL] | MIC [16] [µg/mL] | MIC [17] [µg/mL] | MIC [18] [µg/mL] | MIC [19] [µg/mL] | MIC [20] [µg/mL] | also measured
1 | CC[C@H](C)CCCCC(=O)N[C@@H](CCN)C(=O)N[C@H](C(=O)N[C@@H](CCN)C(=O)N[C@H]1CCNC(=O)[C@H]([C@@H](C)O)NC(=O)[C@H](CCN)NC(=O)[C@H](CCN)NC(=O)[C@H](CC(C)C)NC(=O)[C@@H](Cc2ccccc2)NC(=O)[C@H](CCN)NC1=O)[C@@H](C)O (X1-[Dab]T[Dab][Dab][Dab][dF]L[Dab][Dab]T; lactam 4-C) | 0.5 (≈ 0.415 µM) | 0.5 (≈ 0.415 µM) | 0.5 (≈ 0.415 µM) | Active | Active | -2.55 | – | – | – | – | – | – | – | – | – | – | – | – | – | – | –
2 | CC[C@H](C)CCCCC(=O)N[C@@H](CCN)C(=O)N[C@H](C(=O)N[C@H](CO)C(=O)N[C@H]1CCNC(=O)[C@H]([C@@H](C)O)NC(=O)[C@H](CCN)NC(=O)[C@H](CCN)NC(=O)[C@H]([C@@H](C)O)NC(=O)[C@@H](CC(C)C)NC(=O)[C@H](CCN)NC1=O)[C@@H](C)O (X1-[Dab]T[dS][Dab][Dab][dL]T[Dab][Dab]T; lactam 4-C) | 8 to 32 (≈ 6.99 to 28 µM) | 8 to 32 (≈ 6.99 to 28 µM) | 8 to 32 (≈ 6.99 to 28 µM) | Active | Active | – | 8 to 32 (≈ 6.99 to 28 µM) | 8 to 32 (≈ 6.99 to 28 µM) | 8 to 32 (≈ 6.99 to 28 µM) | 8 to 32 (≈ 6.99 to 28 µM) | 8 to 32 (≈ 6.99 to 28 µM) | 8 to 32 (≈ 6.99 to 28 µM) | 8 to 32 (≈ 6.99 to 28 µM) | 8 to 32 (≈ 6.99 to 28 µM) | 8 to 32 (≈ 6.99 to 28 µM) | 8 to 32 (≈ 6.99 to 28 µM) | 8 to 32 (≈ 6.99 to 28 µM) | 8 to 32 (≈ 6.99 to 28 µM) | 8 to 32 (≈ 6.99 to 28 µM) | 8 to 32 (≈ 6.99 to 28 µM) | MIC [21]: 8 to 32 µg/mL (≈ 6.99 to 28 µM); Activity [6]: inactive
3 | CC(C)CCCCC(=O)N[C@@H](CCN)C(=O)N[C@H](C(=O)N[C@H](CO)C(=O)N[C@H]1CCNC(=O)[C@H]([C@@H](C)O)NC(=O)[C@H](CCN)NC(=O)[C@H](CCN)NC(=O)[C@H]([C@@H](C)O)NC(=O)[C@@H](CC(C)C)NC(=O)[C@H](CCN)NC1=O)[C@@H](C)O ({Heptanoyl(6-Me)}-[Dab]T[dS][Dab][Dab][dL]T[Dab][Dab]T; lactam 4-C) | 8 to 32 (≈ 7.08 to 28.3 µM) | 8 to 32 (≈ 7.08 to 28.3 µM) | 8 to 32 (≈ 7.08 to 28.3 µM) | Active | Active | – | 8 to 32 (≈ 7.08 to 28.3 µM) | 8 to 32 (≈ 7.08 to 28.3 µM) | 8 to 32 (≈ 7.08 to 28.3 µM) | 8 to 32 (≈ 7.08 to 28.3 µM) | 8 to 32 (≈ 7.08 to 28.3 µM) | 8 to 32 (≈ 7.08 to 28.3 µM) | 8 to 32 (≈ 7.08 to 28.3 µM) | 8 to 32 (≈ 7.08 to 28.3 µM) | 8 to 32 (≈ 7.08 to 28.3 µM) | 8 to 32 (≈ 7.08 to 28.3 µM) | 8 to 32 (≈ 7.08 to 28.3 µM) | 8 to 32 (≈ 7.08 to 28.3 µM) | 8 to 32 (≈ 7.08 to 28.3 µM) | 8 to 32 (≈ 7.08 to 28.3 µM) | MIC [21]: 8 to 32 µg/mL (≈ 7.08 to 28.3 µM); Activity [6]: inactive
4 | CC(C)CCCCC(=O)N[C@@H](CCN)C(=O)N[C@H](C(=O)N[C@@H](CCN)C(=O)N[C@H]1CCNC(=O)[C@H]([C@@H](C)O)NC(=O)[C@H](CCN)NC(=O)[C@H](CCN)NC(=O)[C@H](CC(C)C)NC(=O)[C@@H](Cc2ccccc2)NC(=O)[C@H](CCN)NC1=O)[C@@H](C)O [POLYMYXIN B2] ({Heptanoyl(6-Me)}-[Dab]T[Dab][Dab][Dab][dF]L[Dab][Dab]T; lactam 4-C) | 0.5 (≈ 0.42 µM) | 0.5 (≈ 0.42 µM) | 0.5 (≈ 0.42 µM) | Active | Active | -2.55 | – | – | – | – | – | – | – | – | – | – | – | – | – | – | –
